Data on 33 molecules can be found in patent US20230234942A1, “COMPOUNDS FOR TREATING HUNTINGTON'S DISEASE” (PTC Therapeutics, Inc., priority 2020, published 2023).

In the first experiment the test system is Endogenous Huntingtin Protein. The experiment is described as follows: Endogenous Huntingtin Protein Assay (ELISA-based MSD electrochemiluminescence). It is filed as cell-based. Conditions: Table 2; MSD plates coated with MW1 (expanded polyglutamine) or MAB2166 capture antibody; "inactive" = result above the detection limit of the assay. Summed up:
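MSD electrochemiluminescence sandwich ELISA: capture with MW1 (expanded polyQ) or MAB2166 at 1 µg/mL, samples incubated overnight at 4 °C. Detection by rabbit mAb #56565 then SULFO-TAG anti-rabbit antibody, each 0.25 µg/mL for 1 h at room temperature, read in buffer T on SI 6000 imager.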
For the molecule `Cc1cc(-c2cn[nH]c2)cc(O)c1-c1cnc(N2CCN[C@@H](C(C)C)C2)nn1` [Cpd 127, 3-methyl-2-{3-[(3S)-3-(propan-2-yl)piperazin-1-yl]-1,2,4-triazin-6-yl}-5-(1H-pyrazol-4-yl)phenol], the IC50 came out at 672 nM. In other words, the sub-micromolar range.

For the molecule `CC(C)[C@H]1CN(c2ncc(-c3ccc(-c4cnn5c4CCC5)cc3O)nn2)CCN1` [Cpd 278, 5-(5,6-dihydro-4H-pyrrolo[1,2-b]pyrazol-3-yl)-2-{3-[(3S)-3-(propan-2-yl)piperazin-1-yl]-1,2,4-triazin-6-yl}phenol], it took 8.3 nM to reach half-maximal inhibition (IC50).

`CC(C)N1CCN(c2ncc(-c3ccc(-c4cn[nH]c4)cc3O)nn2)CC1` [Cpd 60, 2-{3-[4-(propan-2-yl)piperazin-1-yl]-1,2,4-triazin-6-yl}-5-(1H-pyrazol-4-yl)phenol] came in with an IC50 of 1010 nM. The molecule `Cc1cnsc1-c1ccc(-c2cnc(N3CCN[C@@H](C(C)C)C3)nn2)c(O)c1` [Cpd 253, 5-(4-methyl-1,2-thiazol-5-yl)-2-{3-[(3S)-3-(propan-2-yl)piperazin-1-yl]-1,2,4-triazin-6-yl}phenol] showed an IC50 of 376 nM.

Molecule `CC(C)[C@H]1CN(c2ncc(-c3ccc(-c4cnnn4C)cc3O)nn2)CCN1` [Cpd 261, 5-(1-methyl-1H-1,2,3-triazol-5-yl)-2-{3-[(3S)-3-(propan-2-yl)piperazin-1-yl]-1,2,4-triazin-6-yl}phenol] returned an IC50 of 993 nM.

`Cc1cn2cc(-c3ccc(-c4cnc(N5CCN[C@@H](C(C)C)C5)nn4)c(O)c3)cc(C(F)(F)F)c2n1` [Cpd 139, 5-[2-methyl-8-(trilluoromethyl)imidazo[1,2-a]pyridin-6-yl]-2-{3-[(3S)-3-(propan-2-yl)piperazin-1-yl]-1,2,4-triazin-6-yl}phenol] showed an IC50 of 18 nM.

In the case of `Cc1nc2ccc(-c3ccc(-c4cnc(N5CCN[C@@H](C(C)C)C5)nn4)c(O)c3)cn2n1` [Cpd 85, 5-(2-methyl[1,2,4]triazolo[1,5-a]pyridin-6-yl)-2-{3-[(3S)-3-(propan-2-yl)piperazin-1-yl]-1,2,4-triazin-6-yl}phenol], half-maximal inhibition (IC50) required 6 nM.

Regarding `[2H]C([2H])([2H])n1cc(-c2ccc(-c3cnc(N4CC5CCC(C4)N5C)nn3)c(O)c2)cn1` [Cpd 58, 2-[3-(8-methyl-3,8-diazabicyclo[3.2.1]octan-3-yl)-1,2,4-triazin-6-yl]-5-[l-(^2H3)methyl-1H-pyrazol-4-yl]phenol], the midpoint of inhibition, the IC50, lay at 678 nM. `C[C@@H]1CN(c2ncc(-c3ccc(-c4cc(F)c5nn(C)cc5c4)cc3O)nn2)C[C@H](C)N1` [Cpd 79, 2-{3-[(3R,5S)-3,5-dimethylpiperazin-1-yl]-1,2,4-triazin-6-yl}-5-(7-fluoro-2-methyl-2H-indazol-5-yl)phenol] came in with an IC50 of 5.2 nM. For the molecule `CC(C)[C@H]1CN(c2ncc(-c3ccc(-n4ncc5cncnc54)cc3O)nn2)CCN1` [Cpd 162, 2-{3-[(3S)-3-(propan-2-yl)piperazin-1-yl]-1,2,4-triazin-6-yl}-5-(1H-pyrazolo[3,4-d]pyrimidin-1-yl)phenol], it took 25.4 nM to reach half-maximal inhibition (IC50). `Cc1nc2cnc(-c3ccc(-c4cnc(N5C[C@@H](C)N[C@@H](C)C5)nn4)c(O)c3)cn2n1` [Cpd 167, 2-{3-[(3R,5S)-3,5-dimethylpiperazin-1-yl]-1,2,4-triazin-6-yl}-5-(2-methyl[1,2,4]triazolo[1,5-a]pyrazin-6-yl)phenol] yielded an IC50 of 14.2 nM. `Cc1ccc2oc(-c3ccc(-c4cnc(N5C[C@@H](C)N[C@@H](C)C5)nn4)c(O)c3)cc2n1` [Cpd 120, 2-{3-[(3R,5S)-3,5-dimethylpiperazin-1-yl]-1,2,4-triazin-6-yl}-5-(5-methylfuro[3,2-b]pyridin-2-yl)phenol]: the “IC50 (nM)” value was “inactive”. On to `Cn1nc2cc(-c3ccc(-c4cnc(N5CCN[C@@H](C6CC6)C5)nn4)c(O)c3)cnc2n1` [Cpd 168, 2-{3-[(3S)-3-cyclopropylpiperazin-1-yl]-1,2,4-triazin-6-yl}-5-(2-methyl-2H-[1,2,3]triazolo[4,5-b]pyridin-6-yl)phenol], for which the midpoint of inhibition, the IC50, lay at 1.7 nM. Regarding `C[C@@H]1CN(c2ncc(-c3ccc(-c4c[nH]nc4F)cc3O)nn2)C[C@H](C2CCC2)N1` [Cpd 236, 2-{3-[(3S,5R)-3-cyclobutyl-5-methylpiperazin-1-yl]-1,2,4-triazin-6-yl}-5-(3-fluoro-1H-pyrazol-4-yl)phenol], inhibition was half-maximal at 9.5 nM (IC50). `CN1CCn2ncc(-c3ccc(-c4cnc(N5CCN[C@@H](C6CC6)C5)nn4)c(O)c3)c21` [Cpd 275, 2-{3-[(3S)-3-cyclopropylpiperazin-1-yl]-1,2,4-triazin-6-yl}-5-(1-methyl-2,3-dihydro-IH-imidazo[1,2-b]pyrazol-7-yl)phenol] displayed an IC50 of 755 nM. Compared with the last molecule, the IC50 is about 79-fold higher.

In turn, `CC(C)[C@H]1CN(c2ncc(-c3ccc(-c4cnccn4)cc3O)nn2)CCN1` [Cpd 144, 2-{3-[(3S)-3-(propan-2-yl)piperazin-1-yl]-1,2,4-triazin-6-yl}-5-(pyrazin-2-yl)phenol] displayed an IC50 of 466 nM.

Molecule `Oc1cc(-c2c[nH]nc2F)ccc1-c1cnc(N2CCN[C@@H](C3CC3)C2)nn1` [Cpd 1, 2-{3-[(3S)-3-cyclopropylpiperazin-1-yl]-1,2,4-triazin-6-yl}-5-(3-fluoro-1H-pyrazol-4-yl)phenol] displayed an IC50 of 2.1 nM.

Consider `CC[C@H]1CN(c2ncc(-c3ccc(-c4ncns4)cc3O)nn2)C[C@@H](C)N1` (single isomer, unassigned) [Cpd 267, 2-{3-[(3S,5R)-3-ethyl-5-methylpiperazin-1-yl]-1,2,4-triazin-6-yl}-5-(1,2,4-thiadiazol-5-yl)phenol or 2-{3-[(3R,5S)-3-ethyl-5-methylpiperazin-1-yl]-1,2,4-triazin-6-yl}-5-(1,2,4-thiadiazol-5-yl)phenol], for which half-maximal inhibition (IC50) required 145 nM.

Molecule `CC(C)[C@H]1CN(c2ncc(-c3ccc(-c4nccs4)cc3O)nn2)CCN1` [Cpd 185, 2-{3-[(3S)-3-(propan-2-yl)piperazin-1-yl]-1,2,4-triazin-6-yl}-5-(1,3-thiazol-2-yl)phenol] displayed an IC50 of 158 nM. The IC50 values of the last two molecules are within 1.5-fold of each other. The same measure, in the same setting: with `CCc1cc(-c2ccc(-c3cnc(N4CCN[C@@H](C(C)C)C4)nn3)c(O)c2)cn2cc(C)nc12` [Cpd 138, 5-(8-ethyl-2-methylimidazo[1,2-a]pyridin-6-yl)-2-{3-[(3S)-3-(propan-2-yl)piperazin-1-yl]-1,2,4-triazin-6-yl}phenol] the figure was 19.9 nM; with `C[C@@H]1CN(c2ncc(-c3ccc(-c4ccc5nn(C)nc5n4)cc3O)nn2)C[C@H](C)N1` [Cpd 201, 2-{3-[rac-(3R,5S)-3,5-dimethylpiperazin-1-yl]-1,2,4-triazin-6-yl}-5-(2-methyl-2H-[1,2,3]triazolo[4,5-b]pyridin-5-yl)phenol], 11.1 nM. On the same count and under the same terms, to `C[C@@H]1CN(c2ncc(-c3ccc(-c4cc5nn(C)nc5cn4)cc3O)nn2)C[C@H](C)N1` [Cpd 198, 2-{3-[(3R,5S)-3,5-dimethylpiperazin-1-yl]-1,2,4-triazin-6-yl}-5-(2-methyl-2H-[1,2,3]triazolo[4,5-c]pyridin-6-yl)phenol] belongs 12.5 nM. The molecule `Oc1cc(-c2ccncc2)ccc1-c1cnc(N2CCN[C@@H](C3CC3)C2)nn1` [Cpd 177, 2-{3-[(3S)-3-cyclopropylpiperazin-1-yl]-1,2,4-triazin-6-yl}-5-(pyridin-4-yl)phenol] showed an IC50 of 29 nM. Compared with the last molecule, the IC50 is about 2.3-fold higher.

On to `CC[C@@H]1CN(c2ncc(-c3ccc(-c4cn[nH]c4F)cc3O)nn2)C[C@H](C)N1` [Cpd 218, 2-{3-[(3R,5S)-3-ethyl-5-methylpiperazin-1-yl]-1,2,4-triazin-6-yl}-5-(5-fluoro-1H-pyrazol-4-yl)phenol], for which the IC50 was 73.8 nM. As to `Cc1cnc2nc(-c3ccc(-c4cnc(N5C[C@@H](C)N[C@@H](C)C5)nn4)c(O)c3)sc2n1` [Cpd 119, 2-{3-[(3R,5S)-3,5-dimethylpiperazin-1-yl]-1,2,4-triazin-6-yl}-5-(6-methyl[1,3]thiazolo[4,5-b]pyrazin-2-yl)phenol], the “IC50 (nM)” value was “inactive”. `COc1cc(-c2ccc(-c3cnc(N4CCN[C@@H](C5CC5)C4)nn3)c(O)c2)ccn1` [Cpd 251, 2-{3-[(3S)-3-cyclopropylpiperazin-1-yl]-1,2,4-triazin-6-yl]-5-(2-methoxypyridin-4-yl)phenol] registered an IC50 of 18.6 nM. `CCC[C@H]1CN(c2ncc(-c3ccc(-c4cn[nH]c4)cc3O)nn2)CCN1` [Cpd 37, 2-{3-[(3S)-3-propylpiperazin-1-yl]-1,2,4-triazin-6-yl}-5-(1H-pyrazol-4-yl)phenol] yielded an IC50 of 50.7 nM. The same measure, in the same setting: to `Oc1cc(-c2cn[nH]c2)ccc1-c1cnc(N2CC3CCC(C2)N3)nn1` [Cpd 135, 2-[3-(3,8-diazabicyclo[3.2.1]octan-3-yl)-1,2,4-triazin-6-yl]-5-(1H-pyrazol-4-yl)phenol] belongs 185 nM. Take `COc1cc(-c2ccc(-c3cnc(N4C[C@@H](C)N[C@@H](C(C)C)C4)nn3)c(O)c2)ncn1` [Cpd 230, 5-(6-methoxypyrimidin-4-yl)-2-{3-[(3R,5S)-3-methyl-5-(propan-2-yl)piperazin-1-yl]-1,2,4-triazin-6-yl}phenol]: the IC50 is 11.3 nM. Same read-out and setting: with `[2H]C([2H])([2H])n1cc(-c2ccc(-c3cnc(N4C[C@@H](C)N[C@@H](C5CCC5)C4)nn3)c(O)c2)cn1` [Cpd 238, 2-{3-[(3S,5R)-3-cyclobutyl-5-methylpiperazin-1-yl]-1,2,4-triazin-6-yl}-5-[l-(^2H3)methyl-1H-pyrazol-4-yl]phenol] the figure was 55.1 nM; with `CCC1CN(c2ncc(-c3ccc(-c4cc(F)c5nc(C)cn5c4)cc3O)nn2)CCN1` (stereo not drawn) [Cpd 68, 2-[3-(3-ethylpiperazin-1-yl)-1,2,4-triazin-6-yl]-5-(8-fluoro-2-methylimidazo[1,2-a]pyridin-6-yl)phenol], 2.2 nM.

The same experiment, now with this note: Table 3; selected compounds from WO/2019/191229 A1, same MSD assay.
`CC1CN(c2ncc(-c3ccc(-c4cnn(C)c4)cc3O)nn2)CC(C)N1` (stereo not drawn) [WO/2019/191229 A1 Cpd 263, reference compound]: the IC50 was 352 nM. For `Oc1cc(-c2cn[nH]c2)ccc1-c1cnc(N2CCN3CCC[C@H]3C2)nn1` [WO/2019/191229 A1 Cpd 116, reference compound], the IC50 came to 91.4 nM.
